This passage reports minimal effective dose results from patent publication EP0178946A2, “1-(Aminoalkyl)-alpha, alpha-diaryl pyrrolidine-piperidine- and homopiperidine- acetamides and acetonitriles” (A.H. ROBINS COMPANY, INCORPORATED, priority 1984, dated 1986).

The test relates to Cardiac Arrhythmia in Dogs. The experiment in a line: Ouabain induced arrhythmias: correction of existing ventricular arrhythmia by i.v. infusion. It counts as in vivo, adult mongrel dogs. The note with it: Canis lupus familiaris, iv, 0.5 h; Ouabain-Induced arrhythmia model; dogs under barbiturate anaesthesia; infusion into a femoral vein at 1 mg/kg/min; active if reversion to sinus rhythm maintained for at least 30 minutes; tested as difumarate hemihydrate salt, dose computed as free base; read-out: Correcting Dose mg/kg, i.v. (computed as free base). Here is the method: Correction of existing cardiac arrhythmias of ventricular origin is carried out on (1) adult mongrel dogs which are under barbiturate anaesthesia during the test. A Grass Model 7 Polygraph was used for recording femoral arterial blood pressure (Statham P23AC Transducer) and the electro- cardiagram (Grass 7P4 Preamplifier). Ouabain was given intravenously in an initial dose of 40 µg/kg and in a second dose of 20 µg/kg 30 minutes after the first dose and in subsequent doses of 10 µg/kg which were repeated at 15 min. intervals as required for producing cardiac arrhythmias that persisted for at least 15 minutes. When the arrhythmias were established, the test compounds were administered by infusion (Harvard Model 942 Infusion Pump) into a femoral vein at a rate of 1 mg/kg/min. Concentration of compound was adjusted according to the weight of the dog to allow a volume infusion of 1 ml/min. The compound was considered to be active as antiarrhythmic agent if reversion to sinus rhythm occurred which was maintained for at least 30 minutes.
Data obtained for one preferred compound, namely 1-[2-(dimethylamino)ethyl]α,α-diphenyl-3-pyrrolidine- acetamide as represented by its defumarate hemihydrate salt are shown in Table 1.

On to `CN(C)CCN1CCC(C(C(N)=O)(c2ccccc2)c2ccccc2)C1` (stereo not drawn) [Example 5, 1-2-(Dimethylamino)ethyl]-α,α-diphenyl-3-pyrrolidine-acetamide difumarate, hemihydrate], for which the minimal effective dose came out at 5 mg/kg.
